In PubChem BioAssay (NCI):
Several values for one entry are separate records, joined by “and”; a condition that tells them apart may be missing. Identical values can stand only once.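 Grown in 96-well plates, cells were treated for 48 hours with each compound at five concentrations. Insufficient inhibition: endpoint recorded as highest concentration tested. Here, GI50 denotes the concentration required for 50% inhibition of growth. At the TGI there is no net growth.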

Columns and labels:
Experiment in all cases: NCI anticancer screen, dose series, 48 h
[1] = system: HCC-2998 colon
[2] = system: RXF 393 renal
[3] = system: MALME-3M melanoma
[4] = system: OVCAR-4 ovarian
[5] = system: A549 NSCLC
[6] = system: SNB-75 CNS
[7] = system: MOLT-4 leukemia
[8] = system: HT29 colon
[9] = system: A498 renal
[10] = system: CCRF-CEM leukemia

SMILES	TGI [1]	TGI [2]	TGI [3]	TGI [4]	TGI [5]	TGI [6]	TGI [7]	TGI [8]	TGI [9]	TGI [10]	GI50 [1]	GI50 [2]	GI50 [3]	GI50 [4]	GI50 [5]	GI50 [6]	GI50 [7]	GI50 [8]	GI50 [9]	GI50 [10]
CCOC(OC1=C(C#N)CCC1)C(CC)[Se]c1ccccc1 (stereo not given)	83.8 µM	38.7 µM	66.7 µM	33.1 µM	> 100 µM	64.2 µM	48.8 µM	80.5 µM	> 100 µM	> 100 µM	–	–	–	–	–	–	–	–	–	–
O=C(/C=C/c1ccc([N+](=O)[O-])o1)NNC(=O)c1cc2ccccc2cc1O	3.21 µM	0.94 µM	4.91 µM	> 100 µM	> 100 µM	> 100 µM	> 100 µM	> 100 µM	6.17 µM	> 100 µM	1.32 µM	0.236 µM	1.34 µM	1.26 µM	3.95 µM	1.72 µM	0.97 µM	2.88 µM	2.11 µM	0.441 µM
COc1ccc(N=Cc2ccc(N(CCC#N)CCC#N)cc2)cc1	> 88.1 µM	> 100 µM	> 100 µM	> 100 µM	> 100 µM	> 100 µM	> 100 µM	> 100 µM	> 100 µM	> 100 µM	–	–	–	–	–	–	–	–	–	–
Cc1ccc2c(c1)sc(-c1ccc(N(C)C)cc1)[n+]2C	19 µM	> 47.4 µM	15.4 µM	> 100 µM	–	34.8 µM	> 48.7 µM	> 37.9 µM	8.16 µM	> 62.5 µM	1.51 µM	9.16 µM	1.38 µM	1.58 µM	0.741 µM	4.55 µM	1.93 µM	0.854 µM	0.785 µM	1.98 µM
CC1(C)C(=O)/C(=C\c2ccco2)C[C@]2(C)[C@H]3CC=C4[C@@H]5C[C@](C)(C(=O)O)CC[C@]5(C)CC[C@@]4(C)[C@]3(C)CC[C@@H]12	24.3 µM	22.7 µM	29.3 µM	27 µM	21.7 µM	> 100 µM	26.7 µM	28.6 µM	22.4 µM	32.6 µM	11 µM	10.7 µM	12.7 µM	12.8 µM	4.21 µM	24.6 µM	4.37 µM	11.7 µM	10.3 µM	5.9 µM
COC1C(=O)CCC2(CO2)C1(O)C1(C)OC1CCC(C)C (stereo not given)	> 100 µM	> 100 µM	> 100 µM	> 100 µM	–	> 100 µM	> 100 µM	> 100 µM	> 100 µM	> 100 µM	–	–	–	–	–	–	–	–	–	–
O=C1Cc2c(-c3ccccc3)cc(-c3cccc(Cl)c3)nc2-c2ccccc2N1	7.76 µM	6.28 µM	13.3 µM	5.71 µM	9.25 µM	6.04 µM	> 90.4 µM	5.17 µM	15.7 µM	50.9 µM	–	–	–	–	–	–	–	–	–	–
CC1(C)OC2C(=O)OC(COCc3ccccc3)C2O1 (stereo not given)	> 100 µM	> 100 µM	> 100 µM	> 100 µM	> 100 µM	> 100 µM	> 100 µM	> 100 µM	> 100 µM	> 100 µM	–	–	–	–	–	–	–	–	–	–
CCN(CC)C(=S)SSC1CCCCC1	41.1 µM	31.2 µM	46.3 µM	28.4 µM	82.6 µM	48 µM	43.5 µM	34.8 µM	> 100 µM	58.6 µM	19.7 µM	16.4 µM	20.8 µM	15 µM	30.9 µM	17.5 µM	11.4 µM	15.3 µM	30.8 µM	5.72 µM
Cn1cc(NC(=O)c2cc(NC(=O)CCCCCC(=O)Nc3cc(C(=O)Nc4cc(C(=O)NCCC(=N)N)n(C)c4)n(C)c3)cn2C)cc1C(=O)NCCC(=N)N	> 100 µM	> 100 µM	> 100 µM	> 100 µM	> 100 µM	> 100 µM	–	> 100 µM	> 100 µM	> 100 µM	–	–	–	–	–	–	–	–	–	–
CCCCS(=N)(=O)CC[C@H](N)C(=O)O (stereo not given in full)	> 10000 µM	> 10000 µM	> 10000 µM	–	> 10000 µM	5000 µM and > 10000 µM	3810 µM and > 10000 µM	> 10000 µM	5000 µM and > 10000 µM	2790 µM and 2140 µM	> 10000 µM	> 10000 µM	> 8490 µM	13.4 µM	> 8030 µM	> 10000 µM	1540 µM	> 10000 µM	> 10000 µM	302 µM
Nc1ccc2c(c1)[O][Sn]([c]1ccccc1)([c]1ccccc1)[O]C2=O	33.2 µM	6.09 µM	8.22 µM	28.4 µM	15.9 µM	18.9 µM	29.7 µM	26.5 µM	31.9 µM	7.76 µM	17.8 µM	2.06 µM	3.18 µM	12.9 µM	4.61 µM	7.64 µM	5.01 µM	12.1 µM	18 µM	1.92 µM
CN(C)CCNC(=O)c1cc([N+](=O)[O-])cc2ccc(-c3ccccc3)nc12	20.3 µM	22.8 µM	19.5 µM	13 µM	28 µM	23.8 µM	–	40 µM	14.4 µM	13.6 µM	–	–	–	–	–	–	–	–	–	–
CCCCc1cc(O)ccc1O	> 100 µM	> 100 µM	65.4 µM	26.3 µM	> 100 µM	> 100 µM	> 100 µM	> 100 µM	> 100 µM	60.6 µM	70.8 µM	16.7 µM	21.6 µM	13.1 µM	89.2 µM	14.1 µM	5.07 µM	43.1 µM	> 100 µM	2.79 µM
Cc1cc(O)cc(C)c1/C=C/c1cncc(C(=O)N(C)C)c1	> 25 µM	> 25 µM	> 25 µM	> 25 µM	> 25 µM	> 25 µM	> 25 µM	> 25 µM	> 25 µM	> 25 µM	> 25 µM	> 25 µM	> 25 µM	> 25 µM	> 25 µM	> 13.7 µM	> 25 µM	> 25 µM	> 25 µM	> 25 µM
